9 compounds from patent publication US20110263046A1, “Methods of identification of novel ligands for modulation of orphan nuclear receptor RAR-related orphan receptor-gamma (NR1F3) activity” (PHENEX PHARMACEUTICALS AG, priority 2008, published 2011) can be followed below.

For assay [1], the target named is T1, RORgamma ligand binding domain (Homo sapiens, UniProt P51449).
T1 sequence (P51449 267-518): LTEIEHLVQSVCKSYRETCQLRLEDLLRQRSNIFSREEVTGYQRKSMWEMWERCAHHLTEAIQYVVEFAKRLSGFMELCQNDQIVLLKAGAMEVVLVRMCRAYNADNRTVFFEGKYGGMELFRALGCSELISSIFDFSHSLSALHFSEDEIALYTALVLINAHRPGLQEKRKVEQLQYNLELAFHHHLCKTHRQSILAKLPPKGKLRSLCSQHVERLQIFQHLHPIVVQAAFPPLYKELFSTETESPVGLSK
Kind of assay: TR-FRET ligand sensing assay: RORγ-LBD / coactivator peptide interaction. It counts as biochemical. To be noted: for IC50: antagonistic. The arrangement: made in house; host or cells: E. coli BL21(DE3). As for the experimental part:
As described in more detail in the examples, a GST-RORgamma-LBD fusion protein is expressed and purified from E. coli. The TR-FRET assays were performed in a final volume of 25 μl in individual wells of a 384 well plate using a Tris-based buffer system: 10-50 mM Tris-HCl pH 7.9; 50-100 mM KCl, 1-10 mM MgCl2; 20-100 ng/μl BSA), containing 20-60 ng/well recombinantly expressed RORγ-LBD fused to GST, 200-600 nM N-terminally biotinylated peptide (e.g. derived from SRC-1 or TIF-2), 50-500 ng/well Streptavidin-xIAPC conjugate (Prozyme) and 2-20 ng/well Eu W1024-antiGST (Perkin Elmer).
The human RORg ligand binding domain (LBD) was expressed in E. coli strain BL21(DE3) as an N-terminal glutathione-S-transferase (GST) tagged fusion protein. The DNA encoding the RORg ligand binding domain was cloned into vector pDEST15 (Invitrogen). […] Expression in pDEST15 is controlled by a IPTG inducible T7 promoter and cloning and transformation of E. coli was done essentially according to standard protocols known to persons skilled in the art and supplied by Invitrogen.
Determination of the interaction of a ligand with the human RORgamma ligand binding domain was done by using a Ligand Sensing Assay based on Time-resolved Fluorescence Energy Transfer (TR-FRET).
This method measures the ability of putative ligands to modulate the interaction between the purified bacterial expressed RORg ligand binding domain (LBD) and synthetic N-terminally biotinylated peptides which are derived from nuclear receptor coactivator proteins such as but not limited to SRC1 (NcoA1), SRC2 (NcoA2,TIF2), SRC3 (NcoA3), PGC1α, PGC1β, CBP, GRIP1, TRAP220, RIP140.
(§1) The ligand binding domain (LBD) of RORγ was expressed as fusion protein with GST in […] cells using the vector pDEST15. Cells were lysed by lysozyme-treatment and sonication, and the fusion proteins purified over glutathione sepharose (Pharmacia) according to the manufacturers instructions. For screening of compounds for their influence on the RORγ-peptide interaction, the LANCE technology (Perkin Elmer) was applied. This method relies on the binding dependent energy transfer from a donor to an acceptor fluorophor attached to the binding partner of interest. For ease of handling and reduction of background from compound fluorescence LANCE technology makes use of generic fluorophore labels and time resolved detection assays were done in a final volume of 25 μl in a 384 well plate, in a Tris-based buffer (20 mM Tris-HCl pH 7.9; 60 mM KCl, 5 mM MgCl2; 35 ng/μl BSA), containing 20-60 ng/well recombinantly expressed RORγ-LBD fused to GST, 200-600 nM N-terminally biotinylated peptide, 200 ng/well Streptavidin-xIAPC conjugate (Prozyme) and 6-10 ng/well Eu W1024-antiGST (Perkin Elmer). DMSO content of the samples was kept at 1%. After generation of the assay mix the potentially RORγ modulating ligands were diluted. After his step, the assay was equilibrated for one hour in the dark at room temperature in FIA-plates black 384 well (Greiner). The LANCE signal was detected by a Perkin Elmer VICTOR2V™ Multilabel Counter. […] Ligands that promote the complex formation induce a concentration-dependent increase in time-resolved fluorescent signal.
Equation: Sigmoidal dose-response (variable slope) Y=Bottom+(Top-Bottom)/(1+10̂((LogEC50-X)*HillSlope))
This is identical to the “four parameter logistic equation”. The EC50 or IC50 values are calculated using this equation.
A general note: In TR-FRET formats the signal depends on donor and acceptor labels being close together.

Assay [2] has as its target T1, RORgamma ligand binding domain. Nature of the assay: TR-FRET assay variation: agonist titration on top of saturating antagonist (4 μM LE540). It counts as biochemical. On the set-up: made in house; host or cells: E. coli BL21(DE3).
Source text: as §1
In a variation of the assay described above, an antagonistic compound was added in a saturating concentration (4 μM) to the assay mix. Then the agonistic compounds were diluted and the assay was equilibrated for one hour in the dark.

The target is the same in assay [3]. Nature of the assay: Radioligand displacement assay (3H-25-hydroxycholesterol). On the set-up: made in house; host or cells: E. coli BL21 (DE3). To be noted: FIG. 1; for apparent potency and efficacy of displacement: comparison among ligands; for displacement of 3H-25-hydroxycholesterol bound to RORgamma-LBD: dose dependent, radioligand at saturating concentration (500 nM). The text has this:
This method measures the ability of putative ligands to displace a radioactively labeled compound that is bound to the RORgamma ligand binding domain.
The ligand binding domain (LBD) of RORγ was expressed as fusion protein with GST in BL-21 cells using the vector pDEST15. Cells were lysed by lysozyme-treatment and sonication, and the fusion proteins purified over glutathione sepharose (Pharmacia) according to the manufacturers instructions. For screening of compounds for their ability to bind to RORγ, commercially available 25-26,27-[…]-hydroxycholesterol
(Perkin Elmer, NET674250UC) was bound to the protein and displacement by non radioactive ligands was observed. The assay was done in a final volume of 100 μl in a 96-well glutathione and scintillant coated microplate (Perkin Elmer, SMP109001PK). […] Compounds to be tested were titrated and added to the protein-radioligand mix. DMSO content of the samples was kept at 1%. After addition of the compounds, the assay was equilibrated for 30 min at room temperature. After this incubation the assay plate wells were washed twice with Tris buffer (20 mM Tris-HCl pH 7.5; 60 mM KCl, 5 mM MgCl2) and subsequently measured for 500 sec per well in a LUMIstar OPTIMA (BMG).
(In general: Loss of bound radioactivity is the signal in a displacement assay; it reports binding, not function.)

Assay [4] has as its system IL-17 production by peripheral blood human mononuclear cells (PBMCs). Nature of the assay: PBMC stimulation and IL-17 secretion assay (ELISA). In kind it is cell-based. The settings on record: 72 h; for mean concentration of IL-17: anti-CD3/anti-CD28 stimulated PBMCs. As for the experimental part: Cryopreserved peripheral blood human mononuclear cells (PBMCs) were used for the experiments. The cells were thawed in CTL-Anti-Aggregate-Wash™ solution and washed once in CTL Wash™ medium with benzonase. PBMCs, suspended in CTL serum-free test media (CTL-Test™ Medium), were plated into 96-well BD BioCoat Anti-Human CD3 T-Cell activation plate at a total of 1×10^5 cells/well in triplicate. The cells were incubated with anti-CD28 (2 μg/ml) in the absence or presence of LE540, LE135 and Am580 at different concentrations for 72 h at 37° C. with 5% CO2. The compounds were added at the time 0. The supernatants were harvested and assayed for IL-17 according to the protocol from the corresponding ELISA kit (Invitrogen). The detection range was 15.6-1,000.0 pg/ml. Data are presented as means±s.d. values.
In the control experiments PBMCs were stimulated with anti-CD3 (plate) and anti-CD28 in the presence of 0.1% DMSO. The mean concentration of IL-17 was 1,003.36±45.18 pg/ml. In contrast, the concentration of IL-17 in non stimulated cells was under the detection range (<15.6 pg/ml). […] The compounds were added to the cells at time 0 together with the anti-CD28 mAb. […] The lower concentration of LE540 (0.1 μM) was also very potent in PBMCs. […] The amount of IL-17 protein was down regulated after treatment of cells with 3, 1, and 0.3 μM of LE135 (FIG. 3).

Where [5] appears, read: agonistic, peptide TIF2(628-658), read-out: EC50.
The mark [6] stands for this setting: agonistic, assay includes 4 μM LE540, peptide TIF2(628-658), read-out: apparent EC50.
Where [7] appears, read: Homo sapiens, PBMC, 0.3 μM compound, stimulated PBMCs, read-out: percentage of IL-17 inhibition.

“Also recorded” adds a separate entry of the source.

For orientation: EC50 means the midpoint of the concentration-response curve. For the compound `C[C@@H](CO)CCC[C@@H](C)[C@H]1CC[C@H]2[C@@H]3CC=C4C[C@@H](O)CC[C@]4(C)[C@H]3CC[C@]12C` [(25R)-26-Hydroxycholesterol], the EC50 in assay [1] (setting [5]) was 0.0141 µM; in assay [2] (setting [6]), 0.146 µM.
Regarding `CC(C)CC[C@@H](O)[C@@H](C)[C@H]1CC[C@H]2[C@@H]3CC=C4C[C@@H](O)CC[C@]4(C)[C@H]3CC[C@]12C` [22R-Hydroxycholesterol], the EC50 worked out at 0.0165 µM in assay [1] and 0.154 µM in assay [2].
Usually IC50 stands for the concentration that inhibits the measured activity by half. On to `CC(C)(C)c1cc(C(=O)C=Cc2ccc(C(=O)O)cc2)cc(C(C)(C)C)c1` [Ch55], for which the 50% inhibitory concentration (IC50) in assay [1] (peptide SRC1(676-700)) was 12.2 µM; in assay [1] (peptide TIF2(628-658)), 11.3 µM. Also, the “apparent potency and efficacy of displacement” value (from here on “apparent potency and efficacy”) in assay [3] is “lowest potency and efficacy”. Further, the “displacement of 3H-25-hydroxycholesterol bound to RORgamma-LBD” value in assay [3] is listed as “able to displace”; in assay [3] (listed as CH55), “dose-dependent competitive displacement”.
For `C/C(=C\c1ccc(C(=O)O)cc1)c1ccc2c(c1)C(C)(C)CCC2(C)C` [TTNPB], the 50% inhibitory concentration (IC50) in assay [1] (peptide SRC1(676-700)) was 8.6 µM; in assay [1] (peptide TIF2(628-658)) it was 8.2 µM. In assay [3], the “apparent potency and efficacy” value is reported as “less potent but seems rather efficient”. The results for the “displacement of 3H-25-hydroxycholesterol bound to RORgamma-LBD” value in assay [3] and in assay [3] (listed as TTNBP) were “dose-dependent competitive displacement” and “able to displace”, respectively.
One may read the inhibition as the share of the control response that was lost under treatment. Consider `CN1c2cc3c(cc2N=C(c2ccc(C(=O)O)cc2)c2ccc4ccccc4c21)C(C)(C)CCC3(C)C` [LE540], for which the results for the IC50 in assay [1] (peptide SRC1(676-700)) and in assay [1] (peptide TIF2(628-658)) were 3.6 µM and 4.9 µM, respectively. Besides, the “mean concentration of IL-17” value in assay [4] (0.1 μM compound) came to 659.39 pg/mL; in assay [4] (0.3 μM compound) it was 289.69 pg/mL. In assay [4] (Homo sapiens, PBMC, 0.1 μM compound, stimulated PBMCs, read-out: percentage of IL-17 inhibition), the inhibition at 0.1 µM is 34.3%. In addition, the inhibition at 0.3 µM in assay [4] (setting [7]) turned out to be 71.1%. Further, the “production of IL-17 by human PBMCs (qualitative)” value (from here on “production”) in assay [4] (stimulated PBMCs) is “inhibit the production of IL-17”. In assay [3], the “apparent potency and efficacy” value is listed as “highest”. Also, the “displacement of 3H-25-hydroxycholesterol bound to RORgamma-LBD” value in assay [3] is reported as “able to displace; also recorded: dose-dependent competitive displacement”.
Regarding Am580, the IC50 was found to be 23.4 µM in assay [1] (peptide SRC1(676-700)) and 19.8 µM in assay [1] (peptide TIF2(628-658)). Further, the “level of IL-17” value in assay [4] (1 μM compound, stimulated PBMCs) is listed as “within the control range”; in assay [4] (5 μM compound, stimulated PBMCs) it was “within the control range”. Besides, in assay [4] (10 μM compound, stimulated PBMCs), the “percentage of IL-17 inhibition” value turned out to be 69.73%. Moreover, the “production” value in assay [4] (stimulated PBMCs) is “inhibit the production of IL-17”.
`COC(=O)CC[C@@H](C)[C@H]1CC[C@H]2[C@@H]3CC=C4C[C@@H](O)CC[C@]4(C)[C@H]3CC[C@]12C` [Cholenic Acid Methyl Ester]: the EC50 in assay [1] (agonistic, peptide TIF2(628-658), listed as cholenic acid methyl ester, read-out: EC50) was 0.0277 µM; in assay [1] (setting [5]), 0.0275 µM; in assay [2] (setting [6]), 0.311 µM.
Regarding `C[C@H](CCC(=O)N(C)C)[C@H]1CC[C@H]2[C@@H]3CC=C4C[C@@H](O)CC[C@]4(C)[C@H]3CC[C@]12C` [DMHCA], the results for the EC50 in assay [1] (setting [5]) and in assay [2] (setting [6]) were 0.0107 µM and 0.085 µM, respectively.
In the case of `CN1c2cc3c(cc2N=C(c2ccc(C(=O)O)cc2)c2ccccc21)C(C)(C)CCC3(C)C` [LE135], the IC50 in assay [1] (peptide SRC1(676-700)) was 19.3 µM; in assay [1] (peptide TIF2(628-658)), 13.2 µM. Also, the inhibition at 0.3 µM in assay [4] (setting [7]) was found to be 35.8%. Moreover, the inhibition at 1 µM in assay [4] (Homo sapiens, PBMC, 1 μM compound, stimulated PBMCs, read-out: percentage of IL-17 inhibition) stood at 61.9%. Moreover, in assay [4] (Homo sapiens, PBMC, 3 μM compound, stimulated PBMCs, read-out: percentage of IL-17 inhibition), the inhibition at 3 µM came out at 75.9%. In addition, the “production” value in assay [4] (stimulated PBMCs) is recorded as “inhibit the production of IL-17”.
